From patent US10030020B2, “Spirocycle compounds and methods of making and using same” (Abide Therapeutics, Inc., priority 2016, dated 2018)
Like-named read-outs stand apart in the source and are kept apart here.

Columns and labels:
[1] = target: T1, ABHD6 (Mus musculus (Mouse), UniProt Q8R2Y0); assay: In vitro competitive activity-based protein profiling (mouse brain membrane fraction or cell lysates), ABHD6 band; type: biochemical; settings: for inhibition at 1 µM: read-out: ABHD6 % Inh 1 μM (mouse); for IC50: competitive ABPP
Outline: (§1)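 Residual hydrolase activity was measured as gel band fluorescence after FP-Rh labelling (30 min, 37° C) of proteomes pretreated 30 min at 37° C with inhibitor.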

[2] = target: MAGL (Homo sapiens (Human), UniProt Q99685); assay: In vitro competitive activity-based protein profiling (human prefrontal cortex or cell membrane fractions; hMAGL expressed in HEK293T cells); type: biochemical
Description: In Vitro Competitive Activity-Based Protein Profiling (Human).
Proteomes (human prefrontal cortex or cell membrane fractions) (50 μL, 1.0-2.0 mg/mL total protein concentration) were preincubated with varying concentrations of inhibitors at 37° C. After 30 min, FP—Rh or JW912 (1.0 μL, 50 μM in DMSO) was added and the mixture was incubated for another 30 min at room temperature. Reactions were quenched with SDS loading buffer (15 μL-4×) and run on SDS-PAGE.
Recombinant Expression of Human MAGL in HEK293T Cells.
Cell lysates were diluted with mock proteomes for use in competitive ABPP experiments.

[3] = target: T2, FAAH (Mus musculus (Mouse), UniProt O08914); assay: In vitro competitive activity-based protein profiling (mouse brain membrane fraction or cell lysates), FAAH band; type: biochemical; settings: for inhibition at 1 µM: read-out: FAAH % Inh 1 μM (mouse); for IC50: competitive ABPP
Outline: as §1

[4] = target: T3, MAGL (Mus musculus (Mouse), UniProt O35678); assay: In vitro competitive activity-based protein profiling (mouse brain membrane fraction or cell lysates), MAGL band; type: biochemical; settings: for inhibition at 1 µM: read-out: MAGL % Inh 1 μM (mouse); for IC50: competitive ABPP
Description: In Vitro Competitive Activity-Based Protein Profiling.
Proteomes (mouse brain membrane fraction or cell lysates) (50 μL, 1.0 mg/mL total protein concentration) were preincubated with varying concentrations of inhibitors at 37° C. After 30 min, FP—Rh (1.0 μL, 50 μM in DMSO) was added and the mixture was incubated for another 30 min at 37° C. Reactions were quenched with SDS loading buffer (50 μL-4×) and run on SDS-PAGE.

[5] = target: T3, MAGL; assay: Mouse brain proteomes from inhibitor treated mice (oral gavage, sacrificed 4 h after administration, ABPP analysis); type: in vivo, mouse (C57Bl/6J); settings: 5 mg/kg oral gavage
Outline: (§2)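 Percent inhibition in brain tissue measured by ABPP 4 h after a single oral gavage dose (5 mg/kg) to wild-type C57Bl/6J mice; vehicle was, for example, PEG400/Ethanol/PBS at 7/2/1.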

[6] = target: T2, FAAH; assay: Mouse brain proteomes from inhibitor treated mice (oral gavage, sacrificed 4 h after administration, ABPP analysis), FAAH; type: in vivo, mouse (C57Bl/6J); settings: 5 mg/kg oral gavage
Outline: as §2

[7] = target: T1, ABHD6; assay: Mouse brain proteomes from inhibitor treated mice (oral gavage, sacrificed 4 h after administration, ABPP analysis), ABHD6; type: in vivo, mouse (C57Bl/6J); settings: 5 mg/kg oral gavage
Outline: as §2

[8] = human proteome, competitive ABPP

T3 sequence (O35678 whole entry): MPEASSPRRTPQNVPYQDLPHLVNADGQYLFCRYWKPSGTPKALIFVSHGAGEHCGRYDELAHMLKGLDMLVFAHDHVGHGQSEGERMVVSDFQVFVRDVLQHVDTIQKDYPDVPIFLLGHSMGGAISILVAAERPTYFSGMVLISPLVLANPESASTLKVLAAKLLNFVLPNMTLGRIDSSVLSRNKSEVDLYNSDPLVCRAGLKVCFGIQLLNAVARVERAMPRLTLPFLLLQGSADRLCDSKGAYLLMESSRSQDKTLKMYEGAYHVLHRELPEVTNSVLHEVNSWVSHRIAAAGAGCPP
T1 sequence (Q8R2Y0 whole entry): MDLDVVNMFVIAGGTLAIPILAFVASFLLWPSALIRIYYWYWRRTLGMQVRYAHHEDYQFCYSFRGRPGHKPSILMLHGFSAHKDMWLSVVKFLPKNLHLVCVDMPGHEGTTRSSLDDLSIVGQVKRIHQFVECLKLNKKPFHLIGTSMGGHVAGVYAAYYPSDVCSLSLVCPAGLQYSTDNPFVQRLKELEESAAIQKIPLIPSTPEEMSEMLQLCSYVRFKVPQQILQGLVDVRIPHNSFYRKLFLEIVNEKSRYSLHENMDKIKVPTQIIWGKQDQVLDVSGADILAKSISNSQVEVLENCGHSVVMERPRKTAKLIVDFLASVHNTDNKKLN
T2 sequence (O08914 whole entry): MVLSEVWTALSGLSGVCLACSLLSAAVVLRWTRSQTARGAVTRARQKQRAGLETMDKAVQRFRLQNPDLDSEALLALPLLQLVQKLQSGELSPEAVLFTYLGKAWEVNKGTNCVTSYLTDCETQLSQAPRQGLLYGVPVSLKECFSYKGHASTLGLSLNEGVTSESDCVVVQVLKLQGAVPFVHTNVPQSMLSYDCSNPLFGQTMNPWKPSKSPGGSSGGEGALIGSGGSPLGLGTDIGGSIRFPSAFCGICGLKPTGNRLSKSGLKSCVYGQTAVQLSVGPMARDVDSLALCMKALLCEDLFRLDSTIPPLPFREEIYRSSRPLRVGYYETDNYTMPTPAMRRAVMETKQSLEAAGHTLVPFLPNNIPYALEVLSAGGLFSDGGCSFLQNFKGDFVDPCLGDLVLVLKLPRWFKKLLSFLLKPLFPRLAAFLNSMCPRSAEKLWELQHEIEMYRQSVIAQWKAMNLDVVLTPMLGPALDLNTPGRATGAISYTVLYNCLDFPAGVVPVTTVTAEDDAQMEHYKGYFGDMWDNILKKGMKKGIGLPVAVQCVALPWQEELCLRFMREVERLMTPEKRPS
Sequence of MAGL (Homo sapiens (Human), UniProt Q99685) (Q99685 whole entry): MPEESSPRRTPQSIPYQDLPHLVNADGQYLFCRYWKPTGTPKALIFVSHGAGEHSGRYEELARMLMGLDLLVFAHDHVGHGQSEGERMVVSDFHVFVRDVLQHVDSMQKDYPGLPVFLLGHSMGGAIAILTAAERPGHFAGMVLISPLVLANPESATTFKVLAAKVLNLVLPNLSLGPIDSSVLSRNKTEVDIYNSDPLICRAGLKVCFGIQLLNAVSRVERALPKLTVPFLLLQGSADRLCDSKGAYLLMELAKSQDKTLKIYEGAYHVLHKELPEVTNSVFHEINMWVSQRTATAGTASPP

Row | SMILES | inhibition at 1 µM ([1]; mouse) | IC50 ([2]; human) | inhibition at 1 µM ([3]; mouse) | inhibition at 1 µM ([4]; mouse) | inhibition at 1 µM ([1]; mouse proteome) | IC50 [2, 8] | inhibition at 1 µM ([3]; mouse proteome) | inhibition at 1 µM ([4]; mouse proteome) | IC50 ([1]; mouse proteome) | IC50 ([3]; mouse proteome) | IC50 ([4]; mouse proteome) | MAGL % Inh 5 mg/kg (mouse) [5] | FAAH % Inh 5 mg/kg (mouse) [6] | ABHD6 % Inh 5 mg/kg (mouse) [7]
1 | O=C(O)C1CCN(c2ccc(CN3CCC4(CCN(C(=O)OC(C(F)(F)F)C(F)(F)F)CC4)C3)cc2C(F)(F)F)CC1 [Example 228] | ≥ 75% | < 100 nM | < 25% | > 75% | – | – | – | – | – | – | – | – | – | –
2 | C#Cc1ccc(CN2CCCC23CCN(C(=O)OC(C(F)(F)F)C(F)(F)F)CC3)c(N2CCC(C(=O)O)CC2)c1 [Example 198, 1-{5-Ethynyl-2-[(8-{[(1,1,1,3,3,3-hexafluoropropan-2-yl)oxy]carbonyl}-1,8-diazaspiro[4.5]decan-1-yl)methyl]phenyl}piperidine-4-carboxylic acid] | – | – | – | – | < 25% | < 100 nM | < 25% | > 75% | – | – | – | – | – | –
3 | O=C(O)C1CN(c2cc(CN3CCCC34CCN(C(=O)OC(C(F)(F)F)C(F)(F)F)CC4)cc(C(F)(F)F)c2)CCO1 (centres unmarked) [Example 204] | – | – | – | – | < 25% | < 100 nM | < 25% | > 75% | – | – | – | – | – | –
4 | O=C(O)C1CCN(c2cc(S(F)(F)(F)(F)F)ccc2CN2CCC3(CCN(C(=O)OC(C(F)(F)F)C(F)(F)F)CC3)C2)CC1 [Example 241] | ≥ 75% | < 100 nM | < 25% | > 75% | – | – | – | – | – | – | – | – | – | –
5 | CC1(C(=O)O)CCCN(c2cc(CN3CCC4(CCN(C(=O)OC(C(F)(F)F)C(F)(F)F)CC4)C3)cc(C(F)(F)F)c2)C1 (centres unmarked) [Example 223] | < 25% | < 100 nM | < 25% | > 75% | – | – | – | – | – | – | – | – | – | –
6 | O=C(O)C1CCN(c2cc(CN3CCC4(CCN(C(=O)OC(C(F)(F)F)C(F)(F)F)CC4)C3)cc(C(F)(F)F)c2)C1 (centres unmarked) [Example 202] | – | – | – | – | ≥ 75% | < 100 nM | < 25% | > 75% | – | – | – | – | – | –
7 | NC(=O)c1cc(CN2CCCC23CCN(C(=O)OC(C(F)(F)F)C(F)(F)F)CC3)ccc1C(F)(F)F [Example 178, 1,1,1,3,3,3-hexafluoropropan-2-yl 1-(3-carbamoyl-4-(trifluoromethyl)benzyl)-1,8-diazaspiro[4.5]decane-8-carboxylate] | – | – | – | – | 25 to 75% | < 100 nM | < 25% | > 75% | > 1000 nM | > 1000 nM | < 100 nM | – | – | –
8 | CC1(C(=O)O)CN(c2cc(CN3CCC4(CCN(C(=O)OC(C(F)(F)F)C(F)(F)F)CC4)C3)cc(C(F)(F)F)c2)CCO1 (centres unmarked) [Example 252] | ≥ 75% | < 100 nM | < 25% | > 75% | – | – | – | – | – | – | – | – | – | –
9 | C#Cc1ccc(CN2CCCC23CCN(C(=O)OC(C(F)(F)F)C(F)(F)F)CC3)cc1 [Example 280] | < 25% | < 100 nM | < 25% | > 75% | – | – | – | – | – | – | – | – | – | –
10 | O=C(O)c1ccc(CN2CCC3(CCN(C(=O)OC(C(F)(F)F)C(F)(F)F)CC3)C2)cc1C(F)(F)F [Example 258] | ≥ 75% | > 1000 nM | < 25% | > 75% | – | – | – | – | – | – | – | – | – | –
11 | O=C(O)C1CCCCN1c1cc(CN2CCC3(CCN(C(=O)OC(C(F)(F)F)C(F)(F)F)CC3)C2)cc(C(F)(F)F)c1 (centres unmarked) [Example 225] | < 25% | < 100 nM | < 25% | > 75% | – | – | – | – | – | – | – | – | – | –
12 | O=C(O)C1CN(c2cc(C(F)(F)F)ccc2CN2CCC3(CCN(C(=O)OC(C(F)(F)F)C(F)(F)F)CC3)C2)CCO1 (centres unmarked) [Example 209] | – | – | – | – | 25 to 75% | < 100 nM | < 25% | > 75% | – | – | – | – | – | –
13 | O=C(O)C1CCN(c2cc(CN3CCC4(CCN(C(=O)OC(C(F)(F)F)C(F)(F)F)CC4)C3)ccc2C(F)(F)F)CC1 [Example 234] | ≥ 75% | < 100 nM | < 25% | > 75% | – | – | – | – | – | – | – | – | – | –
14 | O=C(O)c1cc(C(F)(F)F)ccc1CN1CCCC12CCN(C(=O)OC(C(F)(F)F)C(F)(F)F)CC2 [Example 261] | < 25% | < 100 nM | < 25% | 25 to 75% | – | – | – | – | – | – | – | – | – | –
15 | O=C(OC(C(F)(F)F)C(F)(F)F)N1CCC2(CCCN2Cc2ccc(Cl)cc2N2CCN(CCF)CC2)CC1 [Example 19, 1,1,1,3,3,3-Hexafluoropropan-2-yl 1-(4-chloro-2-(4-(2-fluoroethyl)piperazin-1-yl)benzyl)-1,8-diazaspiro[4.5]decane-8-carboxylate] | – | – | – | – | – | – | – | – | > 1000 nM | > 1000 nM | < 100 nM | ## (## is equal to or greater than 25% but less than 75%) | # (# is <25%) | # (# is <25%)
16 | O=C(OC(C(F)(F)F)C(F)(F)F)N1CCC2(CCCN2Cc2ccc(Cl)cc2N2CCOCC2)CC1 [Example 77, 1,1,1,3,3,3-Hexafluoropropan-2-yl 1-(4-chloro-2-morpholinobenzyl)-1,8-diazaspiro[4.5]decane-8-carboxylate] | – | – | – | – | < 25% | – | < 25% | > 75% | > 1000 nM | > 1000 nM | < 100 nM | ### (### is ≥75%) | # (# is <25%) | # (# is <25%)
17 | O=C(OC(C(F)(F)F)C(F)(F)F)N1CCC2(CCCN2Cc2cccc(N3CC4CCC(C3)O4)c2Cl)CC1 [Example 82, 1,1,1,3,3,3-Hexafluoropropan-2-yl 1-(3-(8-oxa-3-azabicyclo[3.2.1]octan-3-yl)-2-chlorobenzyl)-1,8-diazaspiro[4.5]decane-8-carboxylate] | – | – | – | – | < 25% | – | < 25% | > 75% | > 1000 nM | > 1000 nM | < 100 nM | ### (### is ≥75%) | # (# is <25%) | # (# is <25%)
18 | O=C(OC(C(F)(F)F)C(F)(F)F)N1CCC2(CCCN2Cc2ccccc2Cl)CC1 [Example 60, 1,1,1,3,3,3-Hexafluoropropan-2-yl 1-(2-chlorobenzyl)-1,8-diazaspiro[4.5]decane-8-carboxylate] | – | – | – | – | < 25% | – | < 25% | > 75% | > 1000 nM | > 1000 nM | < 100 nM | ### (### is ≥75%) | ## (## is equal to or greater than 25% but less than 75%) | # (# is <25%)
19 | O=C(OC(C(F)(F)F)C(F)(F)F)N1CCC2(CCCN2Cc2ccc(Cl)c(OCCF)c2)CC1 [Example 28, 1,1,1,3,3,3-Hexafluoropropan-2-yl 1-(4-chloro-3-(2-fluoroethoxy)benzyl)-1,8-diazaspiro[4.5]decane-8-carboxylate] | – | – | – | – | – | – | – | – | > 1000 nM | > 1000 nM | < 100 nM | ### (### is ≥75%) | # (# is <25%) | # (# is <25%)
